Where two headings read alike, the source gives them in different places.
Assays:
Assay in all cases: stopped-flow CO2 hydration assay, phenol red
Assay type in all cases: biochemical
hCA I = molecular target: T1, hCA I (Homo sapiens, UniProt P00915)
T1 construct: gene CA1; recombinant, obtained in-house; cytosolic
From the text: stopped-flow CO2 hydration assay, phenol red on hCA I

hCA IX [1] = molecular target: T2, hCA IX (Homo sapiens, UniProt Q16790)
T2 construct: gene CA9; recombinant, obtained in-house; tumor-associated transmembrane isoform
From the text: stopped-flow CO2 hydration assay, phenol red on hCA IX

hCA II [2] = molecular target: T3, hCA II (Homo sapiens, UniProt P00918)
T3 construct: gene CA2; recombinant, obtained in-house; cytosolic
From the text: stopped-flow CO2 hydration assay, phenol red on hCA II

hCA IV [3] = molecular target: T4, hCA IV (Homo sapiens, UniProt P22748); settings: read-out: hCAI
T4 construct: gene CA4; recombinant, obtained in-house
T4 sequence (P22748 19-284): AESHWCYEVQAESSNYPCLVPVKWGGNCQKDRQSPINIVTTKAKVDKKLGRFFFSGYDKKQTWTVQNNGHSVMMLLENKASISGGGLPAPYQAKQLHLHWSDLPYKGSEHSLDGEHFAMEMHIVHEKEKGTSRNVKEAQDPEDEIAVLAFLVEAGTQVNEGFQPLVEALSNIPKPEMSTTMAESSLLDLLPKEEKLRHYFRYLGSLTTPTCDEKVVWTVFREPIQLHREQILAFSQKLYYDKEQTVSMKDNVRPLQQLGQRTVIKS

hCA IV [4] = molecular target: T4, hCA IV
From the text: stopped-flow CO2 hydration assay, phenol red on hCA IV

hCA II [5] = molecular target: T3, hCA II; settings: read-out: hCAI
hCA IX [6] = molecular target: T2, hCA IX; settings: read-out: hCAI

T1 sequence (P00915 2-261): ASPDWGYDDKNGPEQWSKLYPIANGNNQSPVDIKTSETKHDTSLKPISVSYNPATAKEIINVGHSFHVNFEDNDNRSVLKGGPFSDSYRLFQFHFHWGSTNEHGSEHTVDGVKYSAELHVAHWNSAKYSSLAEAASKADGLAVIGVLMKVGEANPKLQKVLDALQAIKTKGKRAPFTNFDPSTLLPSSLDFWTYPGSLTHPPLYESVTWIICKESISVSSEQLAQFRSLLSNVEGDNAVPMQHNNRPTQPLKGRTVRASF

Row | SMILES | Ki (hCA I; read-out: hCAI) | Ki (hCA IX [1]; read-out: hCA IX) | Ki (hCA II [2]; read-out: hCA II) | Ki (hCA IV [3]) | Ki (hCA IV [4]; read-out: hCA IV) | Ki (hCA II [5]) | Ki (hCA IX [6]) | Ki (hCA I) | Ki (hCA IX [1]) | Ki (hCA IV [4]) | Ki (hCA II [2])
1 | C[C@H](CCC(=O)O)[C@H]1CC[C@H]2[C@@H]3[C@H](O)C[C@@H]4C[C@H](O)CC[C@]4(C)[C@H]3CC[C@]12C [compound 1, Chenodeoxycholic acid] | > 100 µM | 63 µM | 53.9 µM | > 100 µM | – | – | – | – | – | – | –
2 | C[C@H](CCC(=O)O)[C@H]1CC[C@H]2[C@@H]3[C@H](O)C[C@@H]4C[C@H](O)CC[C@]4(C)[C@H]3C[C@H](O)[C@]12C [compound 2, Cholic acid] | > 100 µM | 47.1 µM | 48.9 µM | > 100 µM | – | – | – | – | – | – | –
3 | C[C@H](CCC(=O)O)[C@H]1CC[C@H]2[C@@H]3CC[C@@H]4C[C@H](O)CC[C@]4(C)[C@H]3CC[C@]12C [compound 3, Lithocholic acid] | > 100 µM | 70.2 µM | 64.5 µM | > 100 µM | – | – | – | – | – | – | –
4 | C[C@H](CCC(=O)O)[C@H]1CC[C@H]2[C@@H]3CC[C@@H]4C[C@H](O)CC[C@]4(C)[C@H]3C[C@H](O)[C@]12C [compound 4, Deoxycholic acid] | > 100 µM | 55 µM | 51 µM | > 100 µM | – | – | – | – | – | – | –
5 | C[C@H](CCC(=O)O)[C@H]1CC[C@H]2[C@@H]3[C@@H](O)C[C@@H]4C[C@H](O)CC[C@]4(C)[C@H]3CC[C@]12C [compound 5, Ursodeoxycholic acid] | 95.9 µM | 73.1 µM | 71.4 µM | – | > 100 µM | – | – | – | – | – | –
6 | C[C@H](CCC(=O)NCC(=O)O)[C@H]1CC[C@H]2[C@@H]3[C@@H](O)C[C@@H]4C[C@H](O)CC[C@]4(C)[C@H]3CC[C@]12C [compound 6, Glycoursodeoxycholic acid] | > 100 µM | 89.9 µM | 78.4 µM | > 100 µM | – | – | – | – | – | – | –
7 | C[C@H](CCC(=O)NCCS(=O)(=O)O)[C@H]1CC[C@H]2[C@@H]3[C@@H](O)C[C@@H]4C[C@H](O)CC[C@]4(C)[C@H]3CC[C@]12C [compound 7, Tauroursodeoxycholic acid] | > 100 µM | 42.9 µM | 82.9 µM | > 100 µM | – | – | – | – | – | – | –
8 | C[C@H](CCC(=O)O)[C@H]1CC[C@H]2[C@@H]3C[C@H](O)[C@@H]4C[C@H](O)CC[C@]4(C)[C@H]3CC[C@]12C [compound 8, Hyodeoxycholic acid] | > 100 µM | 67.7 µM | 58.4 µM | > 100 µM | – | – | – | – | – | – | –
9 | C[C@H](CCC(=O)O)[C@H]1CC[C@H]2[C@@H]3[C@H](O)[C@H](O)[C@@H]4C[C@H](O)CC[C@]4(C)[C@H]3CC[C@]12C [compound 9, Hyocholic acid] | 83.3 µM | 71.9 µM | 38.9 µM | – | > 100 µM | – | – | – | – | – | –
10 | C[C@H](CCC(=O)O)[C@H]1CC[C@H]2[C@@H]3C(=O)C[C@@H]4CC(=O)CC[C@]4(C)[C@H]3CC(=O)[C@]12C [compound 10, Dehydrocholic acid] | > 100 µM | 53.9 µM | 57.8 µM | > 100 µM | – | – | – | – | – | – | –
11 | CC(C)CCC[C@@H](C)[C@H]1CC[C@H]2[C@@H]3CC=C4C[C@@H](O)CC[C@]4(C)[C@H]3CC[C@]12C [compound 11, Cholesterol] | > 100 µM | – | – | > 100 µM | – | > 100 µM | > 100 µM | – | – | – | –
12 | CC(C)CCC[C@@H](C)[C@H]1CC[C@H]2[C@@H]3CC[C@@H]4C[C@@H](O)CC[C@]4(C)[C@H]3CC[C@]12C [compound 12, Coprostan-3-ol] | > 100 µM | – | – | > 100 µM | – | > 100 µM | > 100 µM | – | – | – | –
13 | C[C@]12CC[C@H]3[C@@H](CCC4=CC(=O)CC[C@@]43C)[C@@H]1CC[C@@H]2O [compound 13, Testosterone] | – | – | – | – | – | – | – | > 100 µM | > 100 µM | > 100 µM | > 100 µM
14 | C[C@]12CC[C@@H](O)C[C@@H]1CC[C@@H]1[C@@H]2CC[C@]2(C)C(=O)CC[C@@H]12 [compound 14, Androsterone] | – | – | – | – | – | – | – | > 100 µM | > 100 µM | > 100 µM | > 100 µM
15 | C[C@]12CC[C@H](O)CC1=CC[C@@H]1[C@@H]2CC[C@]2(C)C(=O)CC[C@@H]12 [compound 15, Trans-dehydroandrosterone] | > 100 µM | – | – | > 100 µM | – | > 100 µM | > 100 µM | – | – | – | –
16 | C[C@]12CCC(=O)C[C@@H]1CC[C@@H]1[C@@H]2CC[C@]2(C)[C@@H](O)CC[C@@H]12 [compound 16, Androstanolone] | – | – | – | – | – | – | – | > 100 µM | > 100 µM | > 100 µM | > 100 µM
17 | CC(=O)[C@H]1CC[C@H]2[C@@H]3CCC4=CC(=O)CC[C@]4(C)[C@H]3CC[C@]12C [compound 17, Progesterone] | > 100 µM | – | – | > 100 µM | – | > 100 µM | > 100 µM | – | – | – | –
18 | CC(=O)[C@H]1CC[C@H]2[C@@H]3CCC4=CC(=O)CC[C@]4(C)[C@H]3[C@H](O)C[C@]12C [compound 18, 11α-Hydroxyprogesterone] | > 100 µM | – | – | > 100 µM | – | > 100 µM | > 100 µM | – | – | – | –
19 | C[C@]12CC[C@@H]3c4ccc(O)cc4CC[C@H]3[C@@H]1CC[C@H]2O [compound 19, α-Estradiol] | 87.8 µM | 49.6 µM | 40.4 µM | – | > 100 µM | – | – | – | – | – | –
20 | C[C@]12CC[C@@H]3c4ccc(O)cc4CC[C@H]3[C@@H]1CCC2=O [compound 20, Estron] | > 100 µM | 71.4 µM | 50.8 µM | > 100 µM | – | – | – | – | – | – | –
21 | C[C@]12CCC(=O)C=C1CC[C@@H]1[C@@H]2[C@@H](O)C[C@@]2(C)[C@H]1CC[C@]2(O)C(=O)CO [compound 21, Hydrocortisone] | > 100 µM | – | – | > 100 µM | – | > 100 µM | > 100 µM | – | – | – | –
22 | C[C@@H]1CC[C@@]2(OC1)O[C@H]1C[C@H]3[C@@H]4CC=C5C[C@@H](O)CC[C@]5(C)[C@H]4CC[C@]3(C)[C@H]1[C@@H]2C [compound 22, Diosgenin] | > 100 µM | – | – | > 100 µM | – | > 100 µM | > 100 µM | – | – | – | –

Source: paper PMC7011995, “Steroids interfere with human carbonic anhydrase activity by using alternative binding mechanisms” (Journal of Enzyme Inhibition and Medicinal Chemistry, 2018)
